In one series the test system is mice. Description: Lethality during the observation period. To be noted: n=6 mice. In kind it is in vivo. On the procedure:
The effects of (±)cis-4,4′-DMAR, (±)trans-4,4′-DMAR and their co-administration were investigated by a protocol widely used in studies of “safety pharmacology” for the preclinical characterization of new molecules in rodents. This protocol includes a series of observational behavioural tests carried out in a consecutive manner that monitor the animal responses up to 5 h after compound injections. In the present study, we reported the observation of physiological (sweating, salivation, core temperature) and neuro-behavioural (detection of psychomotor agitation, spontaneous and stimulated aggressiveness, convulsions) changes occurring in mice after injection of (±)cis-4,4′-DMAR, (±)trans-4,4′-DMAR and their co-administration. Before pharmacological treatment the mouse was placed on a square plate (30 cm× 30 cm) raised from the ground (20 cm) and left free to move on the plate for 10 min (habituation period). The animal was then injected with the vehicle, substances alone ((±)cis-4,4′-DMAR or (±)trans-4,4′-DMAR) or in cis + trans co-administration and placed on the plate. From this moment, the recording time of the physiological and neuro-behavioural responses started, and these were detected in 5-min sessions.
After the first 5 min, the animal was removed from the plate; the body core temperature was then measured, and the aggression tests were performed. The 5-min observation period was repeated at 15–30–60–90–120–180–240–300. Psychomotor agitation in the mouse was not simply related to an increase in spontaneous locomotion itself, but by an “unusual hyperactivity” which was characterised by rapid and sudden horizontal displacements in all directions, sustained turning behaviour, involuntary falls from the high plate during the evaluation of the tests, stereotyped movements and rearing activity. Mouse sweating and salivation were reported only if present or not. The core temperature was determined using a probe (1 mm diameter) that was gently inserted after lubrication with liquid Vaseline into the rectum of the mouse (to about 2 cm) and left in position until the temperature stabilised (about 10 s). The probe was connected to a digital thermometer. Spontaneous aggressive response was measured based on the number of times a mouse bit a grey cloth put in front of its snout. During the test, each mouse was free to move within the cage. In the case of stimulated aggressiveness, each mouse was manually restrained and held in a supine position following which an object was brought near the mouth. For both spontaneous and stimulated aggressive behaviour tests, a grey cloth was placed in front of the nose of each mouse 10 consecutive times (score 0/10 not aggressive, score 10/10 very aggressive). Convulsions were defined as a loss of righting reflexes for at least 5 s, combined with the presence of body tremors and clonic or tonic limb movements. Deaths caused by 4-4’-DMAR injection occurring during the observation period (5 h) were also reported as frequency (%) and time of death (min). Experiments were conducted inside the LARP (Centralised Preclinical Research Laboratory, University of Ferrara, Ferrara, Italy) in a thermo-stated (temperature 20–22 °C, humidity about 45–55%) and light controlled (about 150 lux) room, in which there was a background noise of about 40 ± 4 dB. The experiments, conducted in blind by trained observers working together in pairs, were videotaped and eventually analysed off-line by a different trained operator. The experiments were performed between 8:30 a.m. and 2:00 p.m.
Sweating and salivation were expressed as frequency (e.g., % of animals that developed symptoms); psychomotor agitation was expressed as frequency (% of animals) and duration (total time in mins). Core temperature values were expressed as the difference between control temperature (before injection) and temperature following drug administration (Δ°C). […]

The next series relates to NOX-2. Description: Immunohistochemistry, frontal cortex: NOX-2. To be noted: vs control. In kind it is in vivo, mice. An excerpt:
Following the acute death or the sacrifice of the animals (after 5-h observation period by dislocation of the spine), brains were taken. These were fixed in 4% buffered formalin and then sampled and incorporated into the paraffin (Leica ASP300 processor, Histoline TEC2900 incorporator; Leica Microsystems Srl, Buccinasco, Milano, Italy). Subsequently, the cut (performed with the Leica HistoCore autocut microtome; Leica Microsystems Srl, Buccinasco, Milano, Italy) was designed to create sections with a thickness of 5 µm for each sample.
On 5-µm-thick paraffined […] sections, we evaluated the expression of a panel of markers: heat shock proteins (HSP27, HSP70, HSP90), SMAC/DIABLO, NF-kB, iNOS, NOX-2, NT, 8-OHDG.
We used a detection system composed of a biotinylated secondary antibody and HRP-conjugated streptavidin (4plus HRP Universal Detection, Biocare Medical). […] In the pictures (sections of the frontal cortex; Figure 3, Figure 4 and Figure 5) to evaluate the variation in the expression of markers (Smac, NOX2, iNOS, 8-OHdG, NT, HSP27, HSP70, HSP90) following treatments, the change in intensity of brown colour (staining of the immunohistochemical technique) in the control and treated tissue was measured. Quantification of Smac, NOX2, iNOS, 8-OHdG, NT, HSP27, HSP70 and HSP90 positive-stained areas was performed by the ImageJ software (imagej.nih.gov/ij/ Accessed date 12 May 2020). […]

Marks after values point to notes of the source that are not given here.

Regarding `Cc1ccc(C2OC(N)=NC2C)cc1` (stereo not drawn) [cis-4,4’-DMAR, 4-methyl-5-(4-methylphenyl)-4,5-dihydrooxazol-2-amine], in the series on mice (30 mg/kg i.p.), the “Lethality Frequency % (n° of mice)” value was 50% (3), the “Lethality Surviving mice % (n° of mice)” value is given as 50% (3) and the “Lethality Time of death” value is listed as 59.3 ± 2.3 min. Moreover, in the series on mice (60 mg/kg i.p.), the “Lethality Frequency % (n° of mice)” value is 100% (6), the “Lethality Surviving mice % (n° of mice)” value was 0% (0), the “Lethality Time of death” value was found to be 31.9 ± 5.6 min and the “Lethality Time of death (min)” value is 31.9 ± 5.6 ^d min. In the series on NOX-2 (60 mg/kg), the “Immunoreactivity of NOX-2 in the frontal cortex” value is on record as “did not affect”. Moreover, the “Immunoreactivity of NOX-2 in the frontal cortex” value in the series with NOX-2 (10 and 30 mg/kg) is recorded as “reduced”.
